Values after ≈ are worked out from the molar mass of the structure shown. Where a SMILES comes first, the peptide text is derived from it.
How the values were obtained:
[1] = system: A. baumannii MDR strain 2; type: cell-based, Acinetobacter baumannii complex
Description: (§1) The antimicrobial activity of peptide γ2 was evaluated versus Pseudomonas aeruginosa ATCC 27853, Escherichia coli ATCC 13762 and Staphylococcus aureus ATCC 6538, and versus multidrug-resistant (MDR) clinical isolates of Methicillin-Resistant Staphylococcus aureus (MRSA), extended-spectrum β-lactamase (ESBL)-producing E. coli, P. aeruginosa and Acinetobacter baumannii complex. The isolates were identified by mass spectrometry using the MALDI (matrix-assisted laser desorption/ionisation) mass spectrometer and the biochemical phenotyping method in a VITEKR 2 bioMérieux system (bioMérieux Italia S.p.a., Bagno a Ripoli, Florence, Italy), according to the manufacturer's instructions. The antibiotic susceptibility profile was evaluated with the VITEKR 2 bioMérieux System. The microorganisms were cultured in broth and agar at 37° C. The media used were BD Brain Heart Infusion broth (BHI) (BD, Franklin Lakes, NJ, USA) and BHI agar (OXOID, Basingstoke, Hampshire, UK), BD Trypticase Soy agar with 5% sheep's blood and MacConkey agar (OXOID, Basingstoke, Hampshire, UK). The isolates were stored frozen at −80° C. in BHI broth supplemented with 10% (v/v) glycerol (Carlo Erba Reagents, Milan, Italy) until use, and the work cultures were activated in the respective broths at 37° C. for 15-18 h.
(§2) Assays of the antibacterial activity of peptide γ2, in both reduced and oxidised form, were conducted against P. aeruginosa ATCC 27853, E. coli ATCC 13762, S. aureus ATCC 6538 and MDR clinical isolates. The strains were cultured under aerobic conditions in BHI broth at 37° C. and incubated with peptide γ2 for 2 hours at 37° C. Various concentrations of peptide were used, ranging from 1 μM to 128 μM. Each test was conducted in triplicate with three independent cultures. The minimum inhibitory concentration (MIC) and the minimum bactericidal concentration (MBC) of the peptide were determined with a modified version of the Clinical and Laboratory Standards Institute broth microdilution assay, using a final inoculum concentration of 10^5 CFU/ml, as previously described (Scudiero O et al., Antimicrob Agents Chemother 2010; 54:2312-22; Scudiero O et al. Antimicrob Ag Chemother 2013; 57:1701-8).
(§3) The MIC is indicated by the concentration interval, which comprise the upper growth limit and the first concentration which could not support visible bacterial growth after incubation. The MBC was defined as the lowest concentration at which no viable colonies were observed. The peptide concentrations were 128.0, 64.0, 32.0, 16.0, 8.0, 4.0, 2.0 and 1 μM. For the time-kill studies against the ATCC and MDR strains, the bacteria were cultured in BHI broth until the late log growth phase at 37° C. The bacterial suspensions, containing about 10^6 CFU/ml (adjusted by the spectrophotometer to OD600 nm), were diluted 1:100 in PBS1× and then incubated at 37° C. with or without the peptide, selected at concentrations corresponding to 1, 2 and 4×MIC (as determined above). At baseline and 1, 2, 3 and 5 hours after incubation, a portion of each sample was harvested, diluted in series in PBS1× and seeded on BHI agar. The plates were incubated for […] at 37° C., and the viable bacteria count was conducted by the CFU method. All the data were expressed as mean±SD of three independent experiments.

[2] = system: A. baumannii MDR strain 1; type: cell-based, Acinetobacter baumannii complex
Description: as §1, §2, §3

E. coli ESBL strain 2 = type: cell-based, Escherichia coli
Description: as §1, §2, §3

E. coli ESBL strain 1 = type: cell-based, Escherichia coli
Description: as §1, §2, §3

E. coli ATCC 13762 = type: cell-based, Escherichia coli
Description: as §1, §2, §3

[3] = system: S. aureus ATCC 6538 (ATCC reference strain); test: In vitro time-kill kinetics assay; type: cell-based, Staphylococcus aureus; settings: peptide at MIC, after 2 hours' incubation
Description: as §3

MRSA strains = test: In vitro time-kill kinetics assay; type: cell-based, Staphylococcus aureus; settings: all MRSA strains; peptide at MIC; after 2 hours' incubation, throughout observation period
Description: as §3

[4] = system: E. coli ATCC 13762 (ATCC reference strain); test: In vitro time-kill kinetics assay; type: cell-based, Escherichia coli; settings: peptide at MIC, after 2 hours' incubation
Description: as §3

ESBL strains of E. coli = test: In vitro time-kill kinetics assay; type: cell-based, Escherichia coli; settings: peptide at MIC, after 2 hours' incubation, throughout observation period
Description: as §3

[5] = system: S. aureus ATCC 6538 (intracellular, HeLa cells); test: Invasion and protection assay in HeLa cells; type: cell-based, Staphylococcus aureus; settings: wild-type strain S. aureus ATCC 6538 in HeLa cells; 40 μM for 1 h; all times tested
Description: (§4) The S. aureus ATCC 6538, MRSA strain 2 and MRSA strain 3 invasion assays were conducted as previously described (Colicchio R et al., Antimicrob Agents Chemother 2015; 59:7637-49; Spinosa M R et al. Infect Immun 2007; 75:3594-3603). HeLa cells (ATCC CCL-2) were used for the standard invasion and intracellular viability assays. The cells were cultured in DMEM with 2 mM L-glutamine. The cells were infected at a multiplicity of infection (MOI) of 50 for 1 h, washed twice with PBS1× to eliminate most of the extracellular bacteria, exposed to gentamicin (Sigma-Aldrich) to kill the remaining extracellular bacteria, and then destroyed with saponin (0.5%) to release the intracellular bacteria. To quantify the intracellular staphylococci released by the HeLa cells, the lysed cell suspension was plated on BHI agar, and the number of CFUs was counted the next day. When required, cells were re-incubated in the cell culture medium for various times (3 and 5 hours) after treatment with gentamicin. Treatment with gentamicin was conducted using 105 μM, a concentration 10 times higher than the MIC, for 30 minutes at 37° C. with 5% CO2. Cells were then washed thoroughly with PBS1× to remove the gentamicin and dead extracellular bacteria, and then lysed or re-incubated with medium. To evaluate the protection with the reduced peptide γ2 after treatment with gentamicin, the molecule was added to the sample at the final concentration of 40 µM for 1 hour, then washed twice with PBS1×, and finally destroyed with saponin. As the antibacterial activity of the reduced and oxidised peptide γ2 against S. aureus ATCC 6538 was very similar (Table 1), only the reduced form was used in the test. In all the experiments, the bacteria were centrifuged (60×g) on the cells to start the assay. The experiments were conducted in triplicate, and the data were expressed as mean±SD.

[6] = system: MRSA strain 2 (intracellular, HeLa cells); test: Invasion and protection assay in HeLa cells; type: cell-based, Staphylococcus aureus; settings: MRSA 2 strain in HeLa cells; 40 μM for 1 h
Description: as §4

`CC[C@H](C)[C@H](NC(=O)[C@H](CCC(N)=O)NC(=O)[C@H](CCCNC(=N)N)NC(=O)[C@H](CCCNC(=N)N)NC(=O)[C@H](CCCCN)NC(=O)[C@@H]1CCCN1C(=O)[C@H](CC(C)C)NC(=O)[C@H](CS)NC(C)=O)C(=O)NCC(=O)N[C@@H](CCCCN)C(=O)N[C@@H](CO)C(=O)N[C@@H](CO)C(=O)N[C@H](C(=O)N[C@@H](CCCNC(=N)N)C(=O)NCC(=O)N[C@@H](CCCNC(=N)N)C(=O)N[C@@H](CCCCN)C(=O)N[C@@H](CO)C(=O)N[C@@H](CS)C(=O)N[C@@H](CCCCN)C(=O)N[C@@H](CCCCN)C(N)=O)[C@@H](C)O` [Reduced peptide γ2] (Ac-CLPKRRQIGKSSTRGRKSCKK-NH2) gave an MIC ([1]; A. baumannii MDR strain 2) of 1 µM (≈ 2.46 µg/mL), an MBC ([1]; MDR strain 2) of 1 µM (≈ 2.46 µg/mL) and an MBC [2] of 64 µM (≈ 157 µg/mL). For the same compound, the MBC (E. coli ESBL strain 2) was 16 µM (≈ 39.3 µg/mL), the MIC (E. coli ESBL strain 2) was 2 µM (≈ 4.92 µg/mL) and the MBC (E. coli ESBL strain 1) was 2 µM (≈ 4.92 µg/mL). The MIC (E. coli ESBL strain 1) was 2 µM (≈ 4.92 µg/mL), the MBC (E. coli ATCC 13762) was 2 µM (≈ 4.92 µg/mL) and the MIC (E. coli ATCC 13762) was 2 µM (≈ 4.92 µg/mL). The “growth in time-kill assay” value [3] was “total reduction in growth”, the “growth in time-kill assay” value (MRSA strains) was “total reduction in growth” and the “growth in time-kill assay” value [4] was “total reduction in growth”. The “growth in time-kill assay” value (ESBL strains of E. coli) was “total reduction in growth”, the “viable intracellular bacteria (CFU)” value [5] was “great reduction in viable intracellular bacteria” and the “viable intracellular bacteria (CFU)” value [6] was “bacteriostatic effect”.
